Common to all, as to test: relative viability (nuclei count vs DMSO), 5 days (fraction); higher = more cells survive
Compound in the experiment “Ibrutinib + Luminespib”: C=CC(=O)N1CCC[C@@H](n2nc(-c3ccc(Oc4ccccc4)cc3)c3c(N)ncnc32)C1 [Ibrutinib] + CCNC(=O)c1noc(-c2cc(C(C)C)c(O)cc2O)c1-c1ccc(CN2CCOCC2)cc1 [Luminespib] (partner 0.01 µM)
A digest of the protocol:
(§1)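 A single step with final 0.05% Triton X-100, 1% formaldehyde and 1 ug/ml Hoechst fixed the cells and stained nuclei 5 days after treatment. Lung cancer cell lines in 1536-well plates had been treated by pin tool the day after seeding with one drug alone or a fixed anchor-drug dose plus five library-drug doses (not always all listed) in √10 steps, and nuclei were counted on 4× images. Relative viability is the ratio of nuclei in treated wells to nuclei in vehicle wells, taken as the median of duplicate plates.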

Compound in the experiment “BMX-IN-1 + Phenformin”: C=CC(=O)Nc1cc(-n2c(=O)ccc3cnc4ccc(-c5ccc(NS(C)(=O)=O)cc5)cc4c32)ccc1C [BMX-IN-1] + N=C(N)NC(=N)NCCc1ccccc1 [Phenformin] (partner 250 µM)
A digest of the protocol: as §1

Compound in the experiment “BMX-IN-1 + Vorinostat”: C=CC(=O)Nc1cc(-n2c(=O)ccc3cnc4ccc(-c5ccc(NS(C)(=O)=O)cc5)cc4c32)ccc1C [BMX-IN-1] + O=C(CCCCCCC(=O)Nc1ccccc1)NO [Vorinostat] (partner 1 µM)
A digest of the protocol: as §1

Compound in the experiment “PAC-1 + Phenformin”: C=CCc1cccc(/C=N/NC(=O)CN2CCN(Cc3ccccc3)CC2)c1O [PAC-1] + N=C(N)NC(=N)NCCc1ccccc1 [Phenformin] (partner 250 µM)
Put shortly:
as §1

Experimental findings from the supplement of paper PMC10307832 are described below.

For the cell line SK-MES-1, the relative viability in the experiment with Ibrutinib + Luminespib (first compound 0.005 µM) is 0.619; with Ibrutinib + Luminespib (first compound 0.01581 µM), 0.66; in the experiment with Ibrutinib + Luminespib (first compound 0.05 µM), 0.77; in the experiment with Ibrutinib + Luminespib (first compound 0.1581 µM), 0.842; with Ibrutinib + Luminespib (first compound 0.5 µM) it was 0.443; with BMX-IN-1 + Phenformin (first compound 0.02 µM), 0.711. Moreover, the relative viability with BMX-IN-1 + Phenformin (first compound 0.2 µM) was 0.792; with BMX-IN-1 + Phenformin (first compound 0.6325 µM), 0.695; with BMX-IN-1 + Phenformin (first compound 2 µM), 0.724; in the experiment with BMX-IN-1 + Vorinostat (first compound 0.02 µM), 1.1; with BMX-IN-1 + Vorinostat (first compound 0.2 µM), 1.18; with BMX-IN-1 + Vorinostat (first compound 0.6325 µM) it was 1.45. Besides, the relative viability in the experiment with BMX-IN-1 + Vorinostat (first compound 2 µM) was found to be 0.717; with PAC-1 + Phenformin (first compound 0.02 µM), 0.638; with PAC-1 + Phenformin (first compound 0.06325 µM), 0.661; with PAC-1 + Phenformin (first compound 0.2 µM), 0.381; with PAC-1 + Phenformin (first compound 2 µM), 0.645.
